Test results published in ChEMBL document CHEMBL1127360, “Antipodal alpha-N-(methyl through decyl)-N-normetazocines (5,9 alpha-dimethyl-2'-hydroxy-6,7-benzomorphans): in vitro and in vivo properties” (J Med Chem, 1994).
Active and inactive are the calls of the source. No cut-off for these calls is given here.

Tests used:
[1] = test system: Mus musculus; test: In vivo antinociceptive activity was tested through hot plate (HP) and counting jumps or paw licks; type: functional, organism-based
[2] = target: T1, Glutamate NMDA receptor (Rattus norvegicus) (UniProt P35439+Q00959+Q00960+Q00961+Q62645+Q8VHN2+Q9R1M7); test: Ratio of potencies against PCP receptor to that of Mu receptor of rat; type: protein-complex assay
[3] = test system: Mus musculus; test: Compound was tested in vivo for its narcotic antagonistic activity of the antinociceptive effect in mouse at 30 mg/kg; type: functional
[4] = test system: Mus musculus; test: (§1) In vivo antinociceptive activity was tested through tail flick (TF) with this compound in mouse; type: functional, organism-based
[5] = test system: Cercopithecidae; test: Ratio of potencies against Mu receptor of monkey to that of rat
[6] = species: Cavia porcellus; test: Ratio of potencies against sigma receptor to that of Mu receptor of rat
[7] = target: Glutamate NMDA receptor; test: Inhibition using [3H]TCP in homogenate of rat brain; type: tissue-based
[8] = species: Cavia porcellus; test: Ratio of potencies against PCP receptor to that of sigma receptor
[9] = target: Mu-type opioid receptor (Homo sapiens) (UniProt P35372); test: Ratio of potencies against Mu receptor to that of kappa receptor of monkey; details: Cercopithecidae; target entry is the homologue from another species
Mu-type opioid receptor (Homo sapiens), sequence (P35372 whole entry): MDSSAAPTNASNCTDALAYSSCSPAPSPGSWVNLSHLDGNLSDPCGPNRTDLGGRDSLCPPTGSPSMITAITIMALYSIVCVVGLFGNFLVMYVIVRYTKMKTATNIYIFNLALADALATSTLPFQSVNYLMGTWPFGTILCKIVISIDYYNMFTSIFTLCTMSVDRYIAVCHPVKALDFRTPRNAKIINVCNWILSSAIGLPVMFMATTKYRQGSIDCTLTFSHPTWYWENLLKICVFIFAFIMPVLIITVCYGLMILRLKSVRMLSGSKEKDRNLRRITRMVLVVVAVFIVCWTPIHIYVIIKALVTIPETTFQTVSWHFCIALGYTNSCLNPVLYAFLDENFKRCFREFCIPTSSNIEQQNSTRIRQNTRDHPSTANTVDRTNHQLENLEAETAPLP

[10] = test system: Mus musculus; test: In vivo antinociceptive activity through injecting 2 mg/kg ip phenylquinone, activity calculated by total number of abdominal-stretches per group counted over a 1 min period; Inactive; type: functional, organism-based; design: dose 2 mg/kg
[11] = target: Mu-type opioid receptor (Rattus norvegicus, UniProt P33535); test: Inhibition against mu receptor using [3H]DAMGO in homogenate of rat brain cerebellum; type: tissue-based
Mu-type opioid receptor, sequence (P33535 whole entry): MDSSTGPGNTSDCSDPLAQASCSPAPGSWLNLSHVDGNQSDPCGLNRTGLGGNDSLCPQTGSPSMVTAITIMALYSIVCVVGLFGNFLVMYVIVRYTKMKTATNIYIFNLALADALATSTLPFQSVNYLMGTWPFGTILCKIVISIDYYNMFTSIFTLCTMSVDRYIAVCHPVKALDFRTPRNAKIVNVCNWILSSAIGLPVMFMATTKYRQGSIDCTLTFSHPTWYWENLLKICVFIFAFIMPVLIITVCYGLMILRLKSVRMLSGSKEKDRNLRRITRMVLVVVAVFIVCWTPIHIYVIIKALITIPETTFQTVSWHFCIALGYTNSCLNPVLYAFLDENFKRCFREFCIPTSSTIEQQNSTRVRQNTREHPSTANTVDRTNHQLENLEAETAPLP

[12] = target: Mu-type opioid receptor (Rattus norvegicus) (UniProt P33535); test: Ratio of potencies of (+) and (-) enantiomers against Mu receptors in Rats
Mu-type opioid receptor (Rattus norvegicus), sequence (P33535 whole entry): as above

[13] = target: Mu-type opioid receptor (Homo sapiens) (UniProt P35372); test: Ratio of potencies of (+) and (-) enantiomers against Mu receptors in monkeys; details: Cercopithecidae; target entry is the homologue from another species
[14] = test system: Mus musculus; test: In vivo for its narcotic antagonistic activity of the antinociceptive effect in mouse; type: functional, organism-based
[15] = target: Kappa-type opioid receptor (Homo sapiens) (UniProt P41145); test: Ratio of potencies of (+) and (-) enantiomers against kappa receptors in monkeys; details: Cercopithecidae; target entry is the homologue from another species
Kappa-type opioid receptor (Homo sapiens), sequence (P41145 whole entry): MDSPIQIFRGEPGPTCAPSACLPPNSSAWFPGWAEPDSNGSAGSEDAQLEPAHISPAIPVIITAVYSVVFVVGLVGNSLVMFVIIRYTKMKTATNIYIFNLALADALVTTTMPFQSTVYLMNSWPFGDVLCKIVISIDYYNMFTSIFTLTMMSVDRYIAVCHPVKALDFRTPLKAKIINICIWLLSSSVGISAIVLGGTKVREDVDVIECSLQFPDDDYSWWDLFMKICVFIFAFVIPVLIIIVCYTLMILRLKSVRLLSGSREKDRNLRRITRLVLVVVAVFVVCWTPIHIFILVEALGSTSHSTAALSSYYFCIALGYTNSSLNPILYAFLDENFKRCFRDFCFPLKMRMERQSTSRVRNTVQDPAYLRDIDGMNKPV

[16] = test system: Mus musculus; test: In vivo antinociceptive activity was tested through injecting 2 mg/kg ip phenylquinone, activity calculated by total number of abdominal-stretches; type: functional, Abdomen; details: route intraperitoneal
[17] = test system: Mus musculus; test: as §1; type: functional; design: unit not given beside the values
[18] = target: T1, Glutamate NMDA receptor (Rattus norvegicus); test: Ratio of potencies of (+) and (-) enantiomers against PCP in rats
[19] = test system: Mus musculus; test: In vivo antinociceptive activity through hot plate (HP) by placing mouse on hot plate, and calculating number of times it jumps or licks its paw in 5 seconds; type: functional
[20] = test system: Mus musculus; test: Compound was tested in vivo for its narcotic antagonistic activity of the antinociceptive effect in mouse; type: functional
[21] = test system: Mus musculus; test: In vivo antinociceptive activity at 30 mg/kg was tested through injecting 2 mg/kg ip phenylquinone, activity calculated by total number of abdominal-stretches per group counted over a 1 min period; type: functional
[22] = target: Sigma non-opioid intracellular receptor 1 (Homo sapiens, UniProt Q99720); test: Binding affinity against sigma receptor was determined
Sigma non-opioid intracellular receptor 1, sequence (Q99720 whole entry): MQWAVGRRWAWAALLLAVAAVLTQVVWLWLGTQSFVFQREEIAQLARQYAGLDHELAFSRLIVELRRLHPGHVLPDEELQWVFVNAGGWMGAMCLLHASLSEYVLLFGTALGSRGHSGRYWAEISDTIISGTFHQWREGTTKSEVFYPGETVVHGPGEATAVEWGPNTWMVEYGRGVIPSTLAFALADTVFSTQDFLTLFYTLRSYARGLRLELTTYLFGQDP

[23] = test system: Mus musculus; test: In vivo antinociceptive activity at 1 mg/kg was tested through hot plate (HP) by placing mouse on hot plate, and calculating number of times it jumps or licks its paw in 5 seconds; type: functional
[24] = test system: Mus musculus; test: In vivo antinociceptive activity at 30 mg/kg was tested through hot plate (HP) by placing mouse on hot plate, and calculating number of times it jumps or licks its paw in 5 seconds; type: functional
[25] = test system: Mus musculus; test: In vivo antinociceptive activity at 10 mg/kg was tested through hot plate (HP) by placing mouse on hot plate, and calculating number of times it jumps or licks its paw in 5 seconds; type: functional

Row | Structure (SMILES) | Activity [1] | Ratio [2] | Activity [4] | Ratio [5] | Ratio [6] | Ki [7] | Ratio [8] | Ratio [9] | Ki [11] | Ratio [12] | Ratio [13] | Activity [14] | Ratio [15] | Activity [16] | Activity [17] | Ratio [18] | other results
1 | CCCN1CC[C@@]2(C)c3cc(O)ccc3CC1[C@H]2C | inactive | 0.1 | inactive | 0.2 | 0.008 | 606 nM | 14.1 | 0.5 | 5220 nM |  |  |  |  |  |  |  | inhibition in vivo at 30 mg/kg [3]: 20%; Activity [10]: inactive
2 | CCCCCCCCN1CC[C@]2(C)c3cc(O)ccc3CC1[C@@H]2C |  | 266 |  | 2 | 1.2 | 7970 nM | 228 | 1.3 | 30 nM | 17 | 2.7 | inactive | 29 | 0.5 | 10.3 | 0.1 | Activity [19]: 5.4
3 | C[C@H]1C2Cc3ccc(O)cc3[C@@]1(C)CCN2C |  | 108 |  | 0.4 | 1640 | 1190 nM | 0.07 | 4 | 11 nM | 452 | 328 | inactive | 222 | 0.3 | 0.8 | 0.03 | Activity [19]: 0.6
4 | CCCN1CC[C@]2(C)c3cc(O)ccc3CC1[C@@H]2C | inactive | 35 | inactive | 0.2 | 97 | 264 nM | 0.4 | 1.3 | 7.6 nM | 687 | 629 |  | 226 | 22 |  | 2.3 | Activity [20]: 0.4
5 | CCCCN1CC[C@@]2(C)c3cc(O)ccc3CC1[C@H]2C | inactive | 0.3 | inactive | 0.4 | 0.002 | 893 nM | 149 | 0.6 | 2880 nM |  |  | inactive |  |  |  |  | Inhibition [21]: 43%
6 | C=CCN1CC[C@]2(C)c3cc(O)ccc3CC1[C@@H]2C (single isomer, unassigned; (+)) |  |  |  |  |  |  |  |  |  |  |  |  |  |  |  |  | Ki [22]: 124 nM
7 | CCCCCCCN1CC[C@]2(C)c3cc(O)ccc3CC1[C@H]2C |  | 11 |  | 1.1 | 0.008 | 2570 nM | 1350 | 2.8 | 243 nM |  |  | inactive |  | 3.5 | 12.9 |  | Activity [19]: 11.5
8 | CCN1CC[C@]2(C)c3cc(O)ccc3CC1[C@@H]2C |  |  | inactive |  |  | 1870 nM |  |  | 32 nM |  |  |  |  | 1.4 |  |  | Activity [20]: 3.7; inhibition in vivo at 1 mg/kg [23]: 13%; inhibition in vivo at 30 mg/kg [24]: 25%; inhibition in vivo at 10 mg/kg [25]: 25%
9 | CCCCCCN1CC[C@@]2(C)c3cc(O)ccc3CC1[C@H]2C | inactive | 9.2 |  | 0.4 | 0.003 | 7300 nM | 3180 | 7.1 | 795 nM |  |  | inactive |  | 5.6 | 21.3 |  | 
10 | CCCCN1CC[C@]2(C)c3cc(O)ccc3CC1[C@@H]2C | inactive | 47 | inactive | 0.3 | 8 | 613 nM | 5.9 | 1.4 | 13 nM | 221 | 365 |  | 160 |  |  | 1.5 | Activity [20]: 1.5; Inhibition [21]: 40%
11 | CCCCCCCCCCN1CC[C@]2(C)c3cc(O)ccc3CC1[C@@H]2C | inactive | 20 | inactive | 2 | 0.08 | 10000 nM | 263 | 2.3 | 507 nM | 9.1 | 0.8 | inactive | 1 |  |  | 0.4 | Activity [10]: inactive
12 | C=CCN1CCC2c3cc(O)ccc3CC1C2C (single isomer, unassigned; (-)) |  |  |  |  |  |  |  |  |  |  |  |  |  |  |  |  | Ki [22]: 4300 nM
